Results: patent US8901357B2, “Dibenzoyl peroxide derivatives, preparation method thereof and cosmetic or dermatological compositions containing same” (Galderma Research & Development, priority 2009, dated 2014)

Test system: Propionibacterium acnes
Assay: Sensitivity of peroxides versus dibenzoyl peroxide on Propionibacterium acnes: MIC, dilution method in agar medium (CLSI M11A7)
Format: cell-based
Conditions: Cutibacterium acnes, 48 h
[1] = P. acnes strain 998, read after 48 hours anaerobic incubation
[2] = P. acnes strain 1044, read after 48 hours anaerobic incubation
[3] = P. acnes strain 1045, read after 48 hours anaerobic incubation
[4] = P. acnes strain 1201, read after 48 hours anaerobic incubation
[5] = P. acnes strain 3069, read after 48 hours anaerobic incubation
[6] = P. acnes strain CSS 2913, read after 48 hours anaerobic incubation
[7] = P. acnes strain CSS 2971, read after 48 hours anaerobic incubation
[8] = P. acnes strain CSS 3288, read after 48 hours anaerobic incubation
[9] = P. acnes strain UAA 2281, read after 48 hours anaerobic incubation
[10] = P. acnes strain UAA 2285, read after 48 hours anaerobic incubation

Measured: MIC

O=C(OOC(=O)c1ccccc1)c1ccccc1 [Benzoyl peroxide]
640 µg/mL: [1] | [2] | [3] | [4] | [5] | [6] | [7] | [8] | [9] | [10]

CCCCCCCC(=O)c1ccc(OC(C)=O)c(C(=O)OOC(=O)c2ccccc2)c1 [Example 1, (2-acetoxy-5-octanoylbenzoyl)benzoyl peroxide]
320 µg/mL: [2] | [3] | [4] | [6] | [7] | [8] | [9] | [10]
1280 µg/mL: [1] | [5]
